Source: patent US20170088545A1, “CARBOXAMIDE INHIBITORS” (Norvartis AG, priority 2014, published 2017)

Experiments:
[1] = target: Smurf-1 (Homo sapiens, UniProt Q9HCE7); assay: HECT E3 ligase autoubiquitinylation TR-FRET assay, Smurf-1; type: biochemical; conditions: 45 min incubation, 8-point dose-response
Text: (§1) To determine the HECT E3 ligase selectivity of the compounds, a panel of biochemical HECT E3 ligase autoubiquitinylation assays was employed (Smurf-1, Smurf-2, WWP1, WWP2, ITCH, Nedd4, Nedd4L and E6AP). The conjugation of ubiquitin to a protein substrate is a multistep process. In an initial ATP-requiring step, a thioester bond is formed between the carboxyl terminus of ubiquitin and an internal cystein residue of the ubiquitin-activating enzyme (E1). Activated ubiquitin is then transferred to a specific cystein residue of an ubiquitin-conjugating enzyme (E2). E2s donate ubiquitin to a HECT E3 ligase (E3) from which it is transferred to the substrate protein. HECT E3 ligases can auto-ubiquitinylate. This event is detected in the TR-FRET (Time-Resolved Fluorescence Resonance Energy Transfer) assay used in this panel. The reaction mix contains E1, E2, tagged-E3, biotin-conjugated ubiquitin, the compound and ATP in a suitable buffer and is incubated for 45 minutes to allow auto-ubiquitinylation of the E3 ligase. To measure the extent of ubiquitinylated E3 ligase by TR-FRET, the donor fluorophore Europium cryptate (Eu3+ cryptate), conjugated to streptavidin which subsequently binds to biotinylated ubiquitin, and the modified allophycocyanin XL665 (HTRF® primary acceptor fluorophore) coupled to a tag-specific antibody (HA, His or GST), which recognizes the respective E3 ligase fusion proteins, are added after the reaction is complete. When these two fluorophores are brought together by a biomolecular interaction (in this case ubiquitinylation of the E3 ligase), a portion of the energy captured by the Cryptate during excitation is released through fluorescence emission at 620 nm, while the remaining energy is transferred to XL665. This energy is then released by XL665 as specific fluorescence at 665 nm. Light at 665 nm is emitted only through FRET with Europium.
(§2) Test and reference compounds are prepared at 180× [final] in 90% DMSO, and diluted 1:3 in 90% DMSO.
(§3) For the biochemical assay panel, 50 nl of the test compounds, reference compounds and buffer/DMSO control are transferred to the respective wells of a 384-well white GREINER “SMALL VOLUME” PS plate. The assay panel is run at room temperature on a Biomek FX liquid handling workstation. To the assay plates containing 50 nl compound or control solutions in 90% DMSO, 4.5 ul of E3 ligase solution were added per well, followed by 4.5 ul of the pre-incubated E1/E2/Ub mix or the pre-diluted ubiquitin (LOW control). Plates are shaken vigorously after each addition. In this assay the compound concentrations range from 3 nM to 10 uM in an 8-point dose-response curve.
(§4) After 45 min of incubation the ubiquitinylation reactions were stopped by adding 4.5 ul 2 mM NEM, immediately followed by 4.5 ul of a detection solution including the XL665-labeled antibody and the streptavidin-coupled europium to give a total volume of 18 ul. After an incubation time of 45 min in the dark, the plates are transferred into the Pherastar fluorescence reader to measure the TR-FRET signal.

[2] = target: Smurf-2 (Homo sapiens, UniProt Q9HAU4); assay: HECT E3 ligase autoubiquitinylation TR-FRET assay, Smurf-2; type: biochemical; conditions: 45 min incubation, 8-point dose-response
Text: as §1, §2, §3, §4

Chain of Smurf-1 (Q9HCE7 whole entry): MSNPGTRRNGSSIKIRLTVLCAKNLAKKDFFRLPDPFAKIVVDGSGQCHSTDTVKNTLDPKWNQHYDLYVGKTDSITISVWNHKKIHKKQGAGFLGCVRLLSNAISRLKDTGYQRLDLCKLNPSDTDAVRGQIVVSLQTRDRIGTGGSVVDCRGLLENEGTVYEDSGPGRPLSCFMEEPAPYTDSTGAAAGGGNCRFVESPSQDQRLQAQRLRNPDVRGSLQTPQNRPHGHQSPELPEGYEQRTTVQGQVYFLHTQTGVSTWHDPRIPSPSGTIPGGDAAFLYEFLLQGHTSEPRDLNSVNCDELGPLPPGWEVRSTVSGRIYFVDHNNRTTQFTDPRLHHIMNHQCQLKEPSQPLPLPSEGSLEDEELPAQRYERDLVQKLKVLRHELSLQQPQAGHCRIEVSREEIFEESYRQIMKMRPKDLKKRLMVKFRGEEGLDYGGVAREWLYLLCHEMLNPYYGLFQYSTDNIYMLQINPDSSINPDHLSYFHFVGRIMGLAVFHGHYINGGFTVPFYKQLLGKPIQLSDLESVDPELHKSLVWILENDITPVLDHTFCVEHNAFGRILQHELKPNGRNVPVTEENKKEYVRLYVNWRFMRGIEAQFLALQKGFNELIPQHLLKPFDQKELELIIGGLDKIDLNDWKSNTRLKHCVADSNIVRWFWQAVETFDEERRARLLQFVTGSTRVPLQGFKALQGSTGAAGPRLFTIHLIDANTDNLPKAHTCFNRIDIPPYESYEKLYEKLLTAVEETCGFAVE
Chain of Smurf-2 (Q9HAU4 whole entry, species assumed): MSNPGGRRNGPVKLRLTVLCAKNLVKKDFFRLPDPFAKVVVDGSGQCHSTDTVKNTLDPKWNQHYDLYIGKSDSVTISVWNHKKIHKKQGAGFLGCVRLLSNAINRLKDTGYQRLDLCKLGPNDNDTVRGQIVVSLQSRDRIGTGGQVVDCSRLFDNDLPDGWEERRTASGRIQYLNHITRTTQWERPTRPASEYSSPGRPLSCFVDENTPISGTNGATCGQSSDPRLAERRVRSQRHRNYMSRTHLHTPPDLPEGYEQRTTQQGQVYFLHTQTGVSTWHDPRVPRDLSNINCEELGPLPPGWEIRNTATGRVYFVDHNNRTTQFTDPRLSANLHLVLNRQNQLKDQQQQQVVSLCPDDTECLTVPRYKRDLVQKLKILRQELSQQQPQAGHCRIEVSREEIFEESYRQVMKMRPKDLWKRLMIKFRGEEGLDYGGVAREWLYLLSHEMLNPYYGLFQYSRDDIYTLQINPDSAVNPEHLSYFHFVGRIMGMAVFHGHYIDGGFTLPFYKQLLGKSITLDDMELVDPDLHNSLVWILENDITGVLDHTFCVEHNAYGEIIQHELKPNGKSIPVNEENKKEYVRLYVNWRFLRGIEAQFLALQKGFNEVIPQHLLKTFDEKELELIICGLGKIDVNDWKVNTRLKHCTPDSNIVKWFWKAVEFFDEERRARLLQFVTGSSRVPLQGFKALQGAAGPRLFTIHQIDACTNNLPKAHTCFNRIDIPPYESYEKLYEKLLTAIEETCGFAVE

| Structure (SMILES) | IC50 [1] [nM] | IC50 [2] [nM] |
| --- | --- | --- |
| Cc1c(C(=O)Nc2c(C)n(C)n(-c3ccccc3F)c2=O)noc1-c1ccc(Cl)cc1Cl [Example 001, 5-(2,4-Dichlorophenyl)-N-(2-(2-fluorophenyl)-1,5-dimethyl-3-oxo-2,3-dihydro-1H-pyrazol-4-yl)-4-methylisoxazole-3-carboxamide] | 29.5 | > 10000 |
| Cc1c(C(=O)Nc2c(C)n(C)n(-c3ccccc3F)c2=O)noc1-c1ccc(C2CC2)cc1Cl [Example 002, 5-(2-Chloro-4-cyclopropylphenyl)-N-(2-(2-fluorophenyl)-1,5-dimethyl-3-oxo-2,3-dihydro-1H-pyrazol-4-yl)-4-methylisoxazole-3-carboxamide] | 13.4 | 3660 |
| CSc1ccc(-c2onc(C(=O)Nc3c(C)n(C)n(-c4ccccc4F)c3=O)c2C)cc1 [Example 011, N-(2-(2-Fluorophenyl)-1,5-dimethyl-3-oxo-2,3-dihydro-1H-pyrazol-4-yl)-4-methyl-5-(4-(methylthio)phenyl) isoxazole-3-carboxamide] | 777 | > 10000 |
| COc1ccc(-c2onc(C(=O)Nc3c(C)n(C)n(-c4ccccc4F)c3=O)c2C)c(C(F)(F)F)c1 [Example 013, N-(2-(2-Fluorophenyl)-1,5-dimethyl-3-oxo-2,3-dihydro-1H-pyrazol-4-yl)-5-(4-methoxy-2-(trifluoromethyl)phenyl)-4-methylisoxazole-3-carboxamide] | 102 | > 20000 |
| Cc1c(C(=O)Nc2c(C)n(C)n(C3CCCCC3)c2=O)noc1-c1ccc(C2CC2)cc1Cl [Example 019, 5-(2-Chloro-4-cyclopropylphenyl)-N-(2-cyclohexyl-1,5-dimethyl-3-oxo-2,3-dihydro-1H-pyrazol-4-yl)-4-methylisoxazole-3-carboxamide] | 3.5 | 3100 |
| COc1ccc(-c2onc(C(=O)Nc3c(C)n(C)n(-c4ccccc4F)c3=O)c2Cl)c(F)c1 [Example 022, 4-Chloro-5-(2-fluoro-4-methoxyphenyl)-N-(2-(2-fluorophenyl)-1,5-dimethyl-3-oxo-2,3-dihydro-1H-pyrazol-4-yl) isoxazole-3-carboxamide] | 1160 | > 10000 |
| Cc1c(NC(=O)c2noc(-c3ccc(Cl)cc3Cl)c2Cl)c(=O)n(C2CCCCC2)n1C [Example 023, 4-Chloro-N-(2-cyclohexyl-1,5-dimethyl-3-oxo-2,3-dihydro-1H-pyrazol-4-yl)-5-(2,4-dichlorophenyl) isoxazole-3-carboxamide] | 2.4 | 4250 |
| Cc1c(NC(=O)c2noc(-c3ccc(C4CC4)cc3Cl)c2Cl)c(=O)n(-c2ccccc2F)n1C [Example 030, 4-Chloro-5-(2-chloro-4-cyclopropylphenyl)-N-(2-(2-fluorophenyl)-1,5-dimethyl-3-oxo-2,3-dihydro-1H-pyrazol-4-yl)isoxazole-3-carboxamide] | 13.3 | 5400 |
| COc1ccc(-c2onc(C(=O)Nc3c(C)n(C)n(C4CCCCC4)c3=O)c2Br)c(Cl)c1 [Example 034, 4-Bromo-5-(2-chloro-4-methoxyphenyl)-N-(2-cyclohexyl-1,5-dimethyl-3-oxo-2,3-dihydro-1H-pyrazol-4-yl)isoxazole-3-carboxamide] | 3.7 | 5230 |
| COCc1ccc(-c2onc(C(=O)Nc3c(C)n(C)n(C4CCCCC4)c3=O)c2C)c(Cl)c1 [Example 47, 5-(2-Chloro-4-(methoxymethyl)phenyl)-N-(2-cyclohexyl-1,5-dimethyl-3-oxo-2,3-dihydro-1H-pyrazol-4-yl)-4-methylisoxazole-3-carboxamide] | 41.5 | > 20200 |

More lines, in order of falling IC50 [1], values ahead:

| IC50 [1] [nM] | IC50 [2] [nM] | Structure (SMILES) |
| --- | --- | --- |
| 4150 | > 10000 | COc1cc(F)c(-c2onc(C(=O)Nc3c(C)n(C)n(-c4ccccc4F)c3=O)c2C)c(F)c1 [Example 046, 5-(2,6-difluoro-4-methoxyphenyl)-N-(2-(2-fluorophenyl)-1,5-dimethyl-3-oxo-2,3-dihydro-1H-pyrazol-4-yl)-4-methylisoxazole-3-carboxamide] |
| 1050 | > 10000 | Cc1c(C(=O)Nc2c(C)n(C)n(-c3ccccc3F)c2=O)noc1-c1ccc(N(C)C)cc1 [Example 012, 5-(4-(Dimethylamino)phenyl)-N-(2-(2-fluorophenyl)-1,5-dimethyl-3-oxo-2,3-dihydro-1H-pyrazol-4-yl)-4-methylisoxazole-3-carboxamide] |
| 883 | > 10000 | Cc1c(C(=O)Nc2c(C)n(C)n(-c3ccccc3F)c2=O)noc1-c1ccc(C(F)(F)F)cc1 [Example 008, N-(2-(2-Fluorophenyl)-1,5-dimethyl-3-oxo-2,3-dihydro-1H-pyrazol-4-yl)-4-methyl-5-(4-(trifluoromethyl)phenyl) isoxazole-3-carboxamide] |
| 810 | > 10000 | COc1ccc(-c2onc(C(=O)Nc3c(C)n(C)n(-c4ccccc4F)c3=O)c2Cl)c(F)c1Cl [Example 021, 4-Chloro-5-(3-chloro-2-fluoro-4-methoxyphenyl)-N-(2-(2-fluorophenyl)-1,5-dimethyl-3-oxo-2,3-dihydro-1H-pyrazol-4-yl)isoxazole-3-carboxamide] |
| 450 | 19200 | Cc1c(NC(=O)c2noc(-c3ccc(Cl)cc3Cl)c2C#N)c(=O)n(-c2ccccc2F)n1C [Example 042, 4-Cyano-5-(2,4-dichlorophenyl)-N-(2-(2-fluorophenyl)-1,5-dimethyl-3-oxo-2,3-dihydro-1H-pyrazol-4-yl)isoxazole-3-carboxamide] |
| 220 | > 20000 | COc1ccc(-c2onc(C(=O)Nc3c(C)n(C)n(-c4ccccc4F)c3=O)c2F)c(Cl)c1 [Example 033, 5-(2-Chloro-4-methoxyphenyl)-4-fluoro-N-(2-(2-fluorophenyl)-1,5-dimethyl-3-oxo-2,3-dihydro-1H-pyrazol-4-yl)isoxazole-3-carboxamide] |
| 54.3 | 16800 | Cc1c(NC(=O)c2noc(-c3ccc(OC(F)F)cc3Cl)c2Cl)c(=O)n(-c2ccccc2F)n1C [Example 003, 4-Chloro-5-(2-chloro-4-(difluoromethoxy)phenyl)-N-(2-(2-fluorophenyl)-1,5-dimethyl-3-oxo-2,3-dihydro-1H-pyrazol-4-yl)isoxazole-3-carboxamide] |
| 36 | 17800 | Cc1c(NC(=O)c2noc(-c3ccc(Cl)cc3Cl)c2Br)c(=O)n(-c2ccccc2F)n1C [Example 037, 4-Bromo-5-(2,4-dichlorophenyl)-N-(2-(2-fluorophenyl)-1,5-dimethyl-3-oxo-2,3-dihydro-1H-pyrazol-4-yl)isoxazole-3-carboxamide] |
| 23.5 | 10800 | COc1ccc(-c2onc(C(=O)Nc3c(C)n(C)n(-c4ccccc4F)c3=O)c2C)c(Cl)c1 [Example 006, 5-(2-Chloro-4-methoxyphenyl)-N-(2-(2-fluorophenyl)-1,5-dimethyl-3-oxo-2,3-dihydro-1H-pyrazol-4-yl)-4-methylisoxazole-3-carboxamide] |
| 22.7 | 2740 | Cc1c(C(=O)Nc2c(C)n(C)n(C3CCCCC3)c2=O)noc1-c1ccc(OC(F)(F)F)cc1Cl [Example 010, 5-(2-Chloro-4-(trifluoromethoxy)phenyl)-N-(2-cyclohexyl-1,5-dimethyl-3-oxo-2,3-dihydro-1H-pyrazol-4-yl)-4-methylisoxazole-3-carboxamide] |
| 8.3 | 7500 | Cc1c(NC(=O)c2noc(-c3ccc(Cl)cc3Cl)c2C2CC2)c(=O)n(C2CCCCC2)n1C [Example 039, N-(2-Cyclohexyl-1,5-dimethyl-3-oxo-2,3-dihydro-1H-pyrazol-4-yl)-4-cyclopropyl-5-(2,4-dichlorophenyl) isoxazole-3-carboxamide] |
| 7.7 | 2400 | COc1ccc(-c2onc(C(=O)Nc3c(C)n(C)n(C4CCCCC4)c3=O)c2C)cc1C [Example 048, N-(2-Cyclohexyl-1,5-dimethyl-3-oxo-2,3-dihydro-1H-pyrazol-4-yl)-5-(4-methoxy-3-methylphenyl)-4-methylisoxazole-3-carboxamide] |
